In PubChem BioAssay AID330 (DTP/NCI, 2004):
Values joined by “and” are separate entries in the source; they are usually repeats but may differ in a detail not shown here. Equal values may be shown once. Toxic doses and inconclusive results are not listed. How the source made its calls: active means survival T/C of 150% or more; inactive means T/C below 125% in these data.

Test system: P388 leukemia ip, CD2F1 mice, survival T/C
Assay: NCI In Vivo Anticancer Drug Screen. Data for tumor model P388 Leukemia (intraperitoneal) in CD2F1 (CDF1) mice
Conditions: endpoint: median survival time, higher = longer survival
Outline: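 Mice carrying the transplanted tumor received test compound or vehicle. Survival was recorded in each group, and the value is the treated-group measurement divided by that of the vehicle-treated control group.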

[1] = dose: 50.0 mg/kg/injection, schedule: Q01DX009 (ip), vehicle: saline
[2] = dose: 100.0 mg/kg/injection, schedule: Q01DX009 (ip), vehicle: saline
[3] = dose: 200.0 mg/kg/injection, schedule: Q01DX009 (ip), vehicle: saline
[4] = dose: 50.0 mg/kg/injection, schedule: Q01DX005 (ip), vehicle: saline with Tween-80
[5] = dose: 100.0 mg/kg/injection, schedule: Q01DX005 (ip), vehicle: saline with Tween-80
[6] = dose: 50.0 mg/kg/injection, schedule: Q01DX005 (ip), vehicle: Klucel (hydroxypropylcellulose) (HPC)
[7] = dose: 100.0 mg/kg/injection, schedule: Q01DX005 (ip), vehicle: Klucel (hydroxypropylcellulose) (HPC)
[8] = dose: 50.0 mg/kg/injection, schedule: Q01DX009 (ip), vehicle: Klucel (hydroxypropylcellulose) (HPC)
[9] = dose: 100.0 mg/kg/injection, schedule: Q01DX009 (ip), vehicle: Klucel (hydroxypropylcellulose) (HPC)
[10] = dose: 1.56 mg/kg/injection, schedule: Q01DX005 (ip), vehicle: saline with Tween-80
[11] = dose: 50.0 mg/kg/injection, schedule: Q01DX009 (ip), vehicle: saline with Tween-80
[12] = dose: 100.0 mg/kg/injection, schedule: Q01DX009 (ip), vehicle: saline with Tween-80
[13] = dose: 200.0 mg/kg/injection, schedule: Q01DX009 (ip), vehicle: saline with Tween-80
[14] = dose: 200.0 mg/kg/injection, schedule: Q01DX005 (ip), vehicle: saline with Tween-80
[15] = dose: 12.5 mg/kg/injection, schedule: Q01DX009 (ip), vehicle: Klucel (hydroxypropylcellulose) (HPC)
[16] = dose: 25.0 mg/kg/injection, schedule: Q01DX009 (ip), vehicle: Klucel (hydroxypropylcellulose) (HPC)
[17] = dose: 200.0 mg/kg/injection, schedule: Q01DX009 (ip), vehicle: Klucel (hydroxypropylcellulose) (HPC)

Measured: T/C

Oc1ccccc1/C=N/Nc1nnnn1-c1ccccc1
inactive: dose: 100.0 mg/kg/injection, schedule: Q01DX001 (ip), vehicle: Klucel (hydroxypropylcellulose) (HPC) 102 % of control | dose: 200.0 mg/kg/injection, schedule: Q01DX001 (ip), vehicle: Klucel (hydroxypropylcellulose) (HPC) 102 % of control | dose: 400.0 mg/kg/injection, schedule: Q01DX001 (ip), vehicle: Klucel (hydroxypropylcellulose) (HPC) 98 % of control

CC(Cc1ccccc1)NN1CCOC(c2ccccc2)C1C (stereo not given)
inactive: dose: 100.0 mg/kg/injection, schedule: Q04DX002 (ip), vehicle: saline 102 % of control | dose: 200.0 mg/kg/injection, schedule: Q04DX002 (ip), vehicle: saline 107 % of control | dose: 400.0 mg/kg/injection, schedule: Q04DX002 (ip), vehicle: saline 101 % of control

Cc1ncc(-c2ccccc2)c(N)n1
inactive: [1] 91 % of control | [2] 92 % of control | [3] 102 % of control

CC1(COC(=O)C2(C)CO2)CO1 (stereo not given)
inactive: dose: 25.0 mg/kg/injection, schedule: Q01DX005 (ip), vehicle: water 99 % of control | dose: 50.0 mg/kg/injection, schedule: Q01DX005 (ip), vehicle: saline 91 % of control | dose: 50.0 mg/kg/injection, schedule: Q01DX005 (ip), vehicle: water 101 % of control and 115 % of control | dose: 100.0 mg/kg/injection, schedule: Q01DX005 (ip), vehicle: saline 97 % of control | dose: 100.0 mg/kg/injection, schedule: Q01DX005 (ip), vehicle: water 120 % of control | dose: 200.0 mg/kg/injection, schedule: Q01DX005 (ip), vehicle: saline 91 % of control

O=C(N/N=C/c1cc(Br)cc(Br)c1[O-])c1ccccc1.O=C(N/N=C/c1cc(Br)cc(Br)c1[O-])c1ccccc1.[Mn+2]
inactive: dose: 100.0 mg/kg/injection, schedule: Q01DX001 (ip), vehicle: saline with Tween-80 95 % of control | dose: 200.0 mg/kg/injection, schedule: Q01DX001 (ip), vehicle: saline with Tween-80 101 % of control | dose: 400.0 mg/kg/injection, schedule: Q01DX001 (ip), vehicle: saline with Tween-80 98 % of control

CCCN(CCC)c1cc(=O)nc2ccccn12
inactive: dose: 60.0 mg/kg/injection, schedule: Q01DX005 (ip), vehicle: saline 100 % of control | dose: 120.0 mg/kg/injection, schedule: Q01DX005 (ip), vehicle: saline 106 % of control | dose: 240.0 mg/kg/injection, schedule: Q01DX005 (ip), vehicle: saline 106 % of control

S=c1n(-c2ccc(Cl)cc2)c2nc3ccccc3nc(/c2=N\Nc2ccccc2)n1-c1ccccn1
inactive: [4] 91 % of control | [5] 100 % of control

Nc1nc(-c2cccc([N+](=O)[O-])c2)cc(-c2cc(-c3cccc([N+](=O)[O-])c3)nc(N)n2)n1
inactive: dose: 60.0 mg/kg/injection, schedule: Q01DX005 (ip), vehicle: Klucel (hydroxypropylcellulose) (HPC) 94 % of control | dose: 120.0 mg/kg/injection, schedule: Q01DX005 (ip), vehicle: Klucel (hydroxypropylcellulose) (HPC) 90 % of control | dose: 240.0 mg/kg/injection, schedule: Q01DX005 (ip), vehicle: Klucel (hydroxypropylcellulose) (HPC) 96 % of control

CC(NNC(=S)N1CCC(c2ccccc2)CC1)c1ccc2ccccc2n1 (stereo not given)
inactive: [6] 97 % of control | [7] 105 % of control

COc1cc(OC)cc(N2C(N)=NC(N)=NC2(C)C)c1
inactive: dose: 12.5 mg/kg/injection, schedule: Q01DX005 (ip), vehicle: Klucel (hydroxypropylcellulose) (HPC) 104 % of control | dose: 25.0 mg/kg/injection, schedule: Q01DX005 (ip), vehicle: Klucel (hydroxypropylcellulose) (HPC) 105 % of control | [6] 102 % of control and 107 % of control

CN(C)CC1CC1C1(C)c2ccccc2Sc2ccccc21 (stereo not given)
inactive: [8] 98 % of control | [9] 95 % of control

CNC(=S)N(C)C
inactive: [1] 98 % of control | [2] 99 % of control | [3] 109 % of control

COC(=O)CS(=O)(=O)CS(=O)(=O)CC(=O)OC
inactive: [1] 107 % of control | [2] 100 % of control | [3] 97 % of control

Nc1nc(N)c2c(ccc3c2ccn3Cc2cccc([N+](=O)[O-])c2)n1
inactive: [10] 100 % of control and 119 % of control | dose: 3.12 mg/kg/injection, schedule: Q01DX005 (ip), vehicle: saline with Tween-80 110 % of control

CN(C)C1(c2ccccc2)CS(=O)(=O)C1
inactive: [11] 96 % of control | [12] 96 % of control | [13] 94 % of control

O=C(Nc1ccc(Cl)cc1)SC1=NCC(=O)N1c1ccccc1
inactive: dose: 0.78 mg/kg/injection, schedule: Q01DX005 (ip), vehicle: saline with Tween-80 101 % of control | [10] 102 % of control | dose: 3.13 mg/kg/injection, schedule: Q01DX005 (ip), vehicle: saline with Tween-80 98 % of control and 94 % of control | dose: 6.25 mg/kg/injection, schedule: Q01DX005 (ip), vehicle: saline with Tween-80 94 % of control | dose: 25.0 mg/kg/injection, schedule: Q01DX005 (ip), vehicle: saline with Tween-80 89 % of control | [5] 88 % of control | [14] 92 % of control

Cc1ccc2c(c1)C(=O)n1cccc1C(O)N2 (stereo not given)
inactive: dose: 0.1 mg/kg/injection, schedule: Q01DX005 (ip), vehicle: water 100 % of control | dose: 0.2 mg/kg/injection, schedule: Q01DX005 (ip), vehicle: water 99 % of control | dose: 0.4 mg/kg/injection, schedule: Q01DX005 (ip), vehicle: water 99 % of control | dose: 0.8 mg/kg/injection, schedule: Q01DX005 (ip), vehicle: water 98 % of control | dose: 1.6 mg/kg/injection, schedule: Q01DX005 (ip), vehicle: water 89 % of control | dose: 5.0 mg/kg/injection, schedule: Q01DX005 (ip), vehicle: distilled water + Tween-80 98 % of control | dose: 10.0 mg/kg/injection, schedule: Q01DX005 (ip), vehicle: distilled water + Tween-80 95 % of control | dose: 20.0 mg/kg/injection, schedule: Q01DX005 (ip), vehicle: distilled water + Tween-80 92 % of control | dose: 40.0 mg/kg/injection, schedule: Q01DX005 (ip), vehicle: distilled water + Tween-80 98 % of control | dose: 80.0 mg/kg/injection, schedule: Q01DX005 (ip), vehicle: distilled water + Tween-80 92 % of control

CNc1c[nH]c(=O)[nH]c1=O
inactive: [6] 108 % of control | [7] 105 % of control | dose: 200.0 mg/kg/injection, schedule: Q01DX005 (ip), vehicle: Klucel (hydroxypropylcellulose) (HPC) 96 % of control

C1CN2CCN1CC2
inactive: [1] 99 % of control and 105 % of control | [2] 94 % of control and 108 % of control | [3] 103 % of control and 99 % of control

O=C1NC(=O)NC(C(=O)O)N1
inactive: [15] 105 % of control | [16] 105 % of control | dose: 25.0 mg/kg/injection, schedule: Q01DX009 (ip), vehicle: saline with Tween-80 94 % of control | dose: 50.0 mg/kg/injection, schedule: Q01DX009 (ip), vehicle: DMSO 103 % of control | [8] 104 % of control | [11] 100 % of control | dose: 100.0 mg/kg/injection, schedule: Q01DX009 (ip), vehicle: DMSO 100 % of control | [9] 104 % of control | [12] 100 % of control | dose: 200.0 mg/kg/injection, schedule: Q01DX009 (ip), vehicle: DMSO 97 % of control | [17] 115 % of control | [13] 95 % of control

Cc1ccc(C)c(NC(=O)Nc2ccc(C(=O)O)c(O)c2)c1
inactive: [8] 101 % of control | [9] 101 % of control | [17] 114 % of control

C1CCC2OCCOCCOC3CCCCC3OCCOCCOC2C1 (stereo not given)
inactive: [15] 95 % of control and 96 % of control | [16] 114 % of control and 91 % of control

CC(=O)Nc1ccc2c(c1)Cc1ccccc1-2
inactive: [12] 100 % of control | [13] 95 % of control | dose: 400.0 mg/kg/injection, schedule: Q01DX009 (ip), vehicle: saline with Tween-80 95 % of control

O=[N+]([O-])c1ccc(N=NN2CCOC2)cc1
inactive: [4] 99 % of control | [5] 103 % of control | [14] 105 % of control
